Entries after “also recorded” stand apart in the source; their conditions may differ. Read-outs that look alike come from different tables or passages of the source.
Assays:
[1] = test system: T1, Plasmodium falciparum Dd2 asexual blood stage parasites; assay: microbe, parasite or virus in culture; set-up: species or system P. falciparum Dd2 in human erythrocytes; SYBR Green-I proliferation assay, P. falciparum Dd2 asexual blood stages, growth inhibition; conditions: DD2, Erythrocyte, 72 h, SYBR Green-I
T1 construct: Dd2 line, asexual blood stage
Procedure: The P. falciparum parasite Dd2 line was cultured in vitro using standard conditions63. Briefly, parasites were maintained in 2% human O+ erythrocytes (Interstate Blood Bank, Memphis, TN) in RPMI-1640 medium (Life Technologies, Grand Island, NY) supplemented with 0.5% Albumax II (Life Technologies), 2 mM l-glutamine, 50 mg/L hypoxanthine, 25 mM HEPES, 0.225% NaHCO3, 24 mM sodium bicarbonate, and 10 μg/ml gentamycin. Tissue culture flasks and assay plates were incubated at 37 °C under a gas mixture of 5% CO2, 5% O2 and 90% N2. Methods for the SYBR Green-I qHTS, calculation of AC50 (50% of the normalized compound response relative to the maximum response), and definition of curve classes have been described30,64–66. qHTS assays were performed in a single replicate with a 7- to 11-point dose response format, and follow-up screens with 3–11 independent 11-point response assays. Significant differences were assessed using two-sided Student’s t-tests. All HTS assays were stopped and read at 72 h. Percent response values represent relative growth as judged by SYBR Green-I fluorescence intensity values normalized to controls. […] […]

[2] = test system: P. falciparum Dd2-B2 parasites; assay: In vitro resistance selection under constant drug pressure; format: cell-based, Plasmodium falciparum
Procedure: Recently cloned P. falciparum Dd2-B2 parasites, cultured in duplicate flasks each harboring an inoculum of 2 × 10^9 parasites, were subjected to constant drug pressure from NCGC00473217 at 5 × AC50 or NCGC00374598 at 3 × AC50. […] Clones were then obtained by limiting dilution and three to four clones from each flask were expanded for profiling and sequencing.
Fresh uninfected RBCs (0.5% hematocrit) were added on day 7 and media was changed every other day. […] Resistant parasites were maintained under drug media at a volume of 50 mL until a high parasitemia (> 5%) was achieved. Aliquots of the bulk resistant cultures were frozen in cryovials before cloning by limiting dilution in 96-well plates (seeded at 0.25 or 0.5 parasites/well)[70]. After 3 weeks of cloning, we screened for positive wells by flow cytometry with SYBR Green-stained cells. […] Parasites were harvested by saponin lysis at the trophozoite stage and genomic DNA was extracted using the QIAamp DNA Blood Midi Kit (Qiagen, Germantown, MD)[71].

[3] = test system: P. falciparum Dd2 Cytb V259L; assay: SYBR Green ABS proliferation assay, NCGC00473217 selected clone F06; format: cell-based, Plasmodium falciparum; conditions: Plasmodium falciparum
Procedure, shortened: (§1)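 Proliferation of cytb-mutant Dd2 clones was measured by SYBR Green-I fluorescence at 72 h, normalized to controls.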

[4] = test system: P. falciparum Dd2 (clone B2) asexual blood stage parasites; assay: P. falciparum Dd2 asexual blood stage SYBR Green-I 72 h proliferation assay (qHTS); format: cell-based, Plasmodium falciparum
[5] = test system: P. berghei-ANKA-GFP-LucCON liver stage parasites in HepG2-A16-CD81EGFP cells; assay: P. berghei liver stage Pb-Luc assay, Method 1 (UCSD, 1536-well); format: cell-based, Plasmodium berghei; conditions: Plasmodium berghei
[6] = test system: P. falciparum Dd2 Cytb G131S; assay: SYBR Green ABS proliferation assay, NCGC00374598 selected clone C11; format: cell-based, Plasmodium falciparum; conditions: Plasmodium falciparum
Procedure, shortened: as §1

[7] = test system: P. falciparum Dd2 Cytb A122D; assay: SYBR Green ABS proliferation assay, NCGC00473217 selected clone F12; format: cell-based, Plasmodium falciparum; conditions: Plasmodium falciparum
Procedure, shortened: as §1

[8] = test system: luciferase-expressing P. berghei liver stage parasites in HepG2 cells; assay: Inhibition of liver-stage development assay (ILSDA), Method 2 (WRAIR, 96-well); format: cell-based, Plasmodium berghei; conditions: for Max Resp (signal direction of the dose response): Method 2, Decrease = decreasing P. berghei viability with dose, Increase = increasing signal, Inactive = no dose response; for AC50: Plasmodium berghei
[9] = in vitro; conditions: human
[10] = test system: HepG2 cells; assay: HepG2 mammalian toxicity, CellTiter-Glo, 48 h; conditions: 48 h compound exposure
[11] = in vitro; conditions: for half-life: rat
Procedure: (§2) Pharmacokinetic modeling experiments, parallel artificial membrane permeability assay (PAMPA), solubility, and rat liver microsome stability assessment were performed on all synthetic compounds, as previously described[73]–[75].

[12] = test system: P. falciparum Dd2 Cytb F123L; assay: SYBR Green ABS proliferation assay, NCGC00473217 selected clone G08; format: cell-based, Plasmodium falciparum; conditions: Plasmodium falciparum
Procedure, shortened: as §1

[13] = Aqueous solubility; format: physicochemical
Procedure: as §2

[14] = Parallel artificial membrane permeability assay (PAMPA); format: in vitro ADME
Procedure: as §2

[15] = in vitro; conditions: human, hepg2 cells
[16] = test system: HepG2; conditions: human, hepg2 cells, 48 h
[17] = target: T2, Firefly luciferase (Fluc, EC 1.13.12.7) (Photinus pyralis, UniProt P08659); assay: biochemical; set-up: Firefly luciferase enzyme inhibition counterscreen, luminescence with ATP and D-luciferin; conditions: read-out: Log AC50 (the source's name) (converted)
T2 sequence (P08659 whole entry): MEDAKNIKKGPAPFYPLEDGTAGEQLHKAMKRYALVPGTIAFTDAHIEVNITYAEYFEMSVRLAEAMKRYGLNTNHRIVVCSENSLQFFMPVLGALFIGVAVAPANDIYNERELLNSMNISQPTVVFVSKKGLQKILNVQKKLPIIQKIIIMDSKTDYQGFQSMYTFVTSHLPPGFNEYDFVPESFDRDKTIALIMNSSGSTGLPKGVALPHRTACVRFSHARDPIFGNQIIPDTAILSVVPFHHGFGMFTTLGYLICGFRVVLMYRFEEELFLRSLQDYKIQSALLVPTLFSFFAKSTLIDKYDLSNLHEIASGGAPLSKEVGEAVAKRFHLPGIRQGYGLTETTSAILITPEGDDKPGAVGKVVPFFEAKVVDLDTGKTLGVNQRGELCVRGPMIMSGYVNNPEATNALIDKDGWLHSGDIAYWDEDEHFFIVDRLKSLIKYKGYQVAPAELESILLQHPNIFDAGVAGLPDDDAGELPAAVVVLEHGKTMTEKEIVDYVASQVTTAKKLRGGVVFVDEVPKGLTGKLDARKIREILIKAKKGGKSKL
Procedure: (§3) Compound activity against the Photinus pyralis luciferase (Firefly luciferase, Fluc) reporter utilized for the liver stage assay was determined as previously described using 10 nM Fluc (EC 1.13.12.7) and 10 μM of each substrate (ATP and D-luciferin)[68]. […] Luminescence was detected using ViewLux µHTS Microplate Imager. A counter screen of these 4253 compounds was also performed against the Fluc enzyme, as both liver stage methods utilized a transgenic P. berghei Fluc parasite.

[18] = target: T2, Firefly luciferase (Fluc, EC 1.13.12.7); assay: biochemical; set-up: Firefly luciferase enzyme inhibition counter-screen, luminescence read-out
Procedure: as §3

[19] = test system: sporozoites / hepatocytes; conditions: cited from earlier work
[20] = DD2, NCGC00473217 selected clone, read-out: AC50 Log[M] ± SD, Cytb V259L (converted)
[21] = Plasmodium falciparum, DD2, 72 h, SYBR Green 72 h, WT Dd2-B2, read-out: AC50 Log[M] ± SD, Dd2-B2 (parental line) (converted)
[22] = Plasmodium falciparum, DD2, 72 h, SYBR Green 72 h, approximate value in μM, read-out: AC50 [μM], Dd2-B2 (parental line) (converted)
[23] = DD2, NCGC00374598 selected clone, read-out: AC50 Log[M] ± SD, Cytb G131S (converted)
[24] = DD2, NCGC00473217 selected clone, read-out: AC50 Log[M] ± SD, Cytb A122D (converted)
[25] = DD2, NCGC00473217 selected clone, read-out: AC50 Log[M] ± SD, Cytb F123L (converted)

Structure (SMILES): COc1cc(Cc2cnc(N)nc2N)cc(OC)c1OC [NCGC00016055-05]
- AC50 [1]: > 28000 nM

Structure (SMILES): CC(=O)Nc1ccc(CN2CCc3nc(C(C)C)nc(-c4ccc(Cl)cc4)c3CC2)cc1 [NCGC00374598]
- Recrudescence under pressure ([2]; 2 × 10^9 parasites, 5 × AC50 (NCGC00473217) or 3 × AC50 (NCGC00374598)): 36 days
- AC50 increase of selected clones ([2]; clones from selections with the same compound): threefold increase
- AC50 [3, 20]: 2.82e-06 M
- AC50 ([3]; DD2, Suppl Table 6, read-out: AC50 (mM), Dd2 Cytb V259L): 2.82e-06 M
- AC50 [4, 21]: 1.58e-06 M
- AC50 [4, 22]: 1.5e-06 M
- AC50 ([4]; Plasmodium falciparum, DD2, Suppl Table 6, read-out: AC50 (mM), WT (Dd2-B2)): 1.51e-06 M
- AC50 ([4]; SYBR Green 72 h, approximate value in μM, read-out: AC50 [μM], Dd2-B2 (parental line) (converted)): 1.51e-06 M
- AC50 ([5]; UCSD, read-out: liver stage AC50 (Method 1)): 710 nM
- inhibition at 1 µM ([5]; 1 μM): > 60%
- inhibition at 3 µM ([5]; 3 μM): > 90%
- AC50 [6, 23]: 3.47e-06 M
- AC50 ([6]; DD2, Suppl Table 6, read-out: AC50 (mM), Dd2 Cytb G131S): 3.47e-06 M
- AC50 [7, 24]: 2.09e-06 M
- AC50 ([7]; DD2, Suppl Table 6, read-out: AC50 (mM), Dd2 Cytb A122D): 2.09e-06 M
- Max Resp (signal direction of the dose response) [8]: Inactive
- AC50 ([8]; HepG2, mean, read-out: liver stage AC50 (Method 2)): 500 nM
- AC50 [9]: > 20000 nM
- HepG2 AC50 (mammalian cellular toxicity) [10]: no apparent toxicity
- half-life ([11]; microsomes): 4 min
- AC50 [12, 25]: 3.89e-07 M
- AC50 ([12]; DD2, Suppl Table 6, read-out: AC50 (mM), Dd2 Cytb F123L): 3.89e-07 M

Structure (SMILES): CNC(=O)Oc1cccc(-c2cn3cc(OC(=O)NC)ccc3n2)c1 [MLS000700241-01]
- AC50 [1]: > 28000 nM

Structure (SMILES): CCCN1C(c2ccccc2)=NS(=O)(=O)c2cc(NC(=O)c3cccs3)ccc21 [NCGC00532332]
- AC50 ([3]; DD2, NCGC00473217 selected clone F06, read-out: AC50 [μM], Cytb V259L (converted)): 4.31e-06 M
- AC50 [3, 20]: 4.27e-06 M
- AC50 [4, 21]: 5.89e-07 M
- AC50 [4, 22]: 5.86e-07 M
- AC50 [μM], Dd2-B2 (parental line) ([4]; SYBR Green 72 h, approximate value in μM): sub-micromolar
- AC50 ([6]; DD2, NCGC00374598 selected clone C11, read-out: AC50 [μM], Cytb G131S (converted)): 8.61e-07 M
- AC50 [6, 23]: 8.51e-07 M
- AC50 ([7]; DD2, NCGC00473217 selected clone F12, read-out: AC50 [μM], Cytb A122D (converted)): 1.5e-06 M
- AC50 [7, 24]: 1.51e-06 M
- AC50 ([8]; HepG2, 48 h, 48 h, firefly luciferase reporter P. berghei line, read-out: ILSDA AC50): 39 nM
- AC50 ([8]; HepG2, 48 h, 48 h, read-out: ILSDA AC50 (Method 2)): < 50 nM
- Aqueous Solubility [13]: poor aqueous solubility
- solubility ([13]; aqueous media): < 1 µg/mL
- AC50 at 48 h ([9]; HepG2 cells, HepG2 AC50 (mammalian cellular toxicity), 48 h compound exposure): > 20000 nM
- HepG2 AC50 (mammalian cellular toxicity) [10]: Neither compound was cytotoxic
- PAMPA permeability [14]: high permeability; also recorded: favorable
- PAMPA pH7.4 ([14]; pH 7.4): 714 1e-6 cm/s
- RLMS T1/2 ([11]; rat liver microsomes): favorable
- half-life ([11]; rat liver microsomes): 22.6 min
- AC50 ([12]; DD2, NCGC00473217 selected clone G08, highest concentration 29 µM, read-out: AC50 [μM], Cytb F123L (converted)): 2e-06 M
- AC50 [12, 25]: 2e-06 M

Structure (SMILES): CCN(CC)CCCN(c1ccccc1)C1Cc2ccccc2C1.Cl [NCGC00167576-01]
- AC50 ([5]; Method 1, log10 of molar AC50 from Hill fit, read-out: Log AC50 (converted)): 1580 nM
- CC50 at 48 h [15]: 27300 nM
- Max Resp (signal direction of the dose response) [8]: Decrease
- AC50 ([8]; HepG2, Method 2, Hill fit, 50% of maximum activity response, read-out: AC50): 7940 nM
- AC50 ([8]; HepG2, Method 2, log10 of molar AC50 from Hill fit, read-out: Log AC50 (converted)): 7940 nM
- Log AC50 (M) [16]: -4.5643 M
- IC50 [17]: > 57000 nM
- AC50 [18]: > 57000 nM

Structure (SMILES): CC(C)(CN)c1nc(-c2ccc(Cl)c(O)c2)c(-c2ccncc2)[nH]1 [MMV030084]
- IC50 ([19]; added 2 h post sporozoite addition): > 10000 nM
- IC50 ([19]; pre-treat hepatocytes 4 h prior to adding sporozoites): 199 nM

— publication PMC7822874, “Chemoprotective antimalarials identified through quantitative high-throughput screening of Plasmodium blood and liver stage parasites” (Scientific Reports, 2021)
